Experimental data: patent US10888550B2, “Pyrazole derivatives as MALT1 inhibitors” (Janssen Pharmaceutica NV, priority 2018, dated 2021)

Tests used:
[1] = target: full-length MALT1 protein (Strep-MALT1(1-824)-His) (Homo sapiens (Human), UniProt Q9UDY8); test: MALT1 Biochemical Protease Assay; settings: read-out: MALT1_Biochemical activity (Ac-LRSR-amc) IC50; 10 nM FL MALT1, 200 μM Ac-LRSR-AMC, 50 min pre-incubation, 4 h at RT
Excerpt: From this an ICso value (inhibitory concentration causing 50% inhibition) can be obtained.

[2] = test system: IL6 secretion, OCI-LY3 cells; test: Human IL6 Mesoscale assay (OCI-LY3); format: cell-based; settings: 24 h incubation
[3] = test system: IL10 secretion, OCI-LY3 cells; test: Human IL10 Mesoscale assay (OCI-LY3); format: cell-based; settings: 24 h incubation

full-length MALT1 protein (Strep-MALT1(1-824)-His), sequence (Q9UDY8 whole entry): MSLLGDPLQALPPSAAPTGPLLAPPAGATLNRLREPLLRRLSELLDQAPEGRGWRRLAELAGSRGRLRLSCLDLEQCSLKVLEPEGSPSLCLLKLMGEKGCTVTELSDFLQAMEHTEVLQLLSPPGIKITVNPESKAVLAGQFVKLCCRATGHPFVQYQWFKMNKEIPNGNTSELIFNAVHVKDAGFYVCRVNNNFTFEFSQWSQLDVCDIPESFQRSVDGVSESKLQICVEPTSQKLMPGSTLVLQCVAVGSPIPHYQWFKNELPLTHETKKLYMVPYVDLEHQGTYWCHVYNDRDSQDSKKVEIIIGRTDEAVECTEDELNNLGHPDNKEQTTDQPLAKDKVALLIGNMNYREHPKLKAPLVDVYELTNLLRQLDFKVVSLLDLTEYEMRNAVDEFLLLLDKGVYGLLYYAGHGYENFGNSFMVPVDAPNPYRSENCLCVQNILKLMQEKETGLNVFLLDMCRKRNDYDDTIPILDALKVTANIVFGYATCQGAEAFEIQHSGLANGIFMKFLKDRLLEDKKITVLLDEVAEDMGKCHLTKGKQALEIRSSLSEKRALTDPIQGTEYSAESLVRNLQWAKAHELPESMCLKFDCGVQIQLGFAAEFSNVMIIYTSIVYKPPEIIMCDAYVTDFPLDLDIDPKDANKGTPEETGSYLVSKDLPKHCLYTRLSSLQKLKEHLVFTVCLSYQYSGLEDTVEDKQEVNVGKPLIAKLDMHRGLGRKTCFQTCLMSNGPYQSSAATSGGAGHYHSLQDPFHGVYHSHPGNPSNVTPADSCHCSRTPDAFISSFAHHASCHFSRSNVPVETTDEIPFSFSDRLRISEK

Compound N#Cc1ccc(-n2ncc(C(=O)Nc3cnc(-n4nccn4)c(Cl)c3)c2C(F)(F)F)c2ccnn12 [Cpd 13, N-(5-chloro-6-(2H-1,2,3-triazol-2-yl)pyridin-3-yl)-1-(7-cyanopyrazolo[1,5-a]pyridin-4-yl)-5-(trifluoromethyl)-1H-pyrazole-4-carboxamide] has an IC50 [1] of 19 nM, an IC50 [2] of 22 nM and an IC50 [3] of 19 nM.

Work on O=C(Nc1ccnc(C(F)(F)F)c1)c1cnn(-c2ccc(Cl)n3nccc23)c1C(F)(F)F [Cpd 14, 1-(7-chloropyrazolo[1,5-a]pyridin-4-yl)-5-(trifluoromethyl)-N-(2-(trifluoromethyl)pyridin-4-yl)-1H-pyrazole-4-carboxamide] yielded an IC50 [1] of 209 nM, an IC50 [2] of 115 nM and an IC50 [3] of 501 nM.

Cc1ccc(-n2ncc(C(=O)Nc3cnc(-n4nccn4)c(Cl)c3)c2C(F)(F)F)n2ccnc12 [Cpd 7, N-(5-chloro-6-(2H-1,2,3-triazol-2-yl)pyridin-3-yl)-1-(8-methylimidazo[1,2-a]pyridin-5-yl)-5-(trifluoromethyl)-1H-pyrazole-4-carboxamide] showed an IC50 [1] of 120 nM, an IC50 [2] of 219 nM and an IC50 [3] of 65 nM.

O=C(Nc1cnc([C@@H]2CCCO2)c(Cl)c1)c1cnn(-c2ccc(Cl)n3nccc23)c1C(F)(F)F (single isomer, unassigned) [Cpd 21, (*S)—N-(5-chloro-6-(tetrahydrofuran-2-yl)pyridin-3-yl)-1-(7-chloropyrazolo[1,5-a]pyridin-4-yl)-5-(trifluoromethyl)-1H-pyrazole-4-carboxamide] showed an IC50 [1] of 87 nM, an IC50 [2] of 245 nM and an IC50 [3] of 200 nM.

N#Cc1ccc(-n2ncc(C(=O)Nc3ccnc(C(F)(F)F)c3)c2C(F)(F)F)c2ccnn12 [Cpd 11, 1-(7-cyanopyrazolo[1,5-a]pyridin-4-yl)-5-(trifluoromethyl)-N-(2-(trifluoromethyl)pyridin-4-yl)-1H-pyrazole-4-carboxamide] showed an IC50 [1] of 89 nM, an IC50 [2] of 138 nM and an IC50 [3] of 65 nM.

With CS(=O)(=O)c1ncc(NC(=O)c2cnn(-c3ccc(F)c4nccn34)c2C(F)(F)F)cc1C(F)(F)F [Cpd 5, 1-(8-fluoroimidazo[1,2-a]pyridin-5-yl)-N-(6-(methylsulfonyl)-5-(trifluoromethyl)pyridin-3-yl)-5-(trifluoromethyl)-1H-pyrazole-4-carboxamide] the IC50 [1] was 372 nM, the IC50 [2] was 281 nM and the IC50 [3] was 371 nM.

Work on Cc1cnc(-c2ncc(NC(=O)c3cnn(-c4ccc(F)c5nccn45)c3C(F)(F)F)cc2Cl)o1 [Cpd 9, N-(5-chloro-6-(5-methyloxazol-2-yl)pyridin-3-yl)-1-(8-fluoroimidazo[1,2-a]pyridin-5-yl)-5-(trifluoromethyl)-1H-pyrazole-4-carboxamide] yielded an IC50 [1] of 81 nM, an IC50 [2] of 240 nM and an IC50 [3] of 129 nM.

Work on NC(=O)c1ccc(-n2ncc(C(=O)Nc3cnc(-n4nccn4)c(Cl)c3)c2C(F)(F)F)n2ccnc12 [Cpd 1, 5-(4-((5-chloro-6-(2H-1,2,3-triazol-2-yl)pyridin-3-yl)carbamoyl)-5-(trifluoromethyl)-1H-pyrazol-1-yl)imidazo[1,2-a]pyridine-8-carboxamide] yielded an IC50 [1] of 49 nM, an IC50 [2] of 91 nM and an IC50 [3] of 87 nM.
